Measurements reported in ChEMBL document CHEMBL3232865, “Development and characterization of 3-(benzylsulfonamido)benzamides as potent and selective SIRT2 inhibitors” (Eur J Med Chem, 2014).

Assays:
[1] = in vitro; settings: human, microsomes
[2] = in vitro; settings: human, microsomes; remark: listed apart in the source
[3] = in vitro; settings: mouse, microsomes
[4] = in vitro; settings: mouse, microsomes; remark: listed apart in the source
[5] = in vitro; settings: mouse, microsomes; remark: listed apart in the source
[6] = in vitro; settings: mouse, microsomes; remark: listed apart in the source
[7] = human, microsomes, 1 µM
[8] = in vitro; settings: human, microsomes; remark: listed apart in the source
[9] = mouse, microsomes, 1 µM
[10] = in vitro; settings: human, microsomes; remark: listed apart in the source
[11] = human, microsomes, 1 h, 1 µM
[12] = mouse, microsomes, 1 µM; remark: listed apart in the source
[13] = in vitro; settings: mouse, microsomes; remark: listed apart in the source
[14] = in vitro; settings: human, microsomes; remark: listed apart in the source
[15] = Metabolic stability in mouse plasma assessed as compound remaining at 5 uM; assay type: ADME, cell-free; settings: read-out: Stability
[16] = Half life in mouse plasma at 5 uM; assay type: ADME, cell-free

| SMILES | remaining at 1 µM [1] [%] | remaining at 1 µM [2] [%] | remaining at 1 µM [3] [%] | remaining at 1 µM [4] [%] | also measured |
| --- | --- | --- | --- | --- | --- |
| CN(c1ccc(Cl)cc1)S(=O)(=O)c1cccc(C(=O)Nc2ccc(C#N)cn2)c1 | 2 | 91 | 1 | 96 |  |
| CN(c1ccc(S(C)(=O)=O)cc1)S(=O)(=O)c1cccc(NC(=O)c2ccc(Br)cc2)c1 |  |  |  |  | microsomal CLint at 1 µM [5]: 945 µL/min/mg; half-life at 1 µM [6]: 2.45 min; t1/2 [7]: 75.7 min; microsomal CLint at 1 µM [8]: 512 µL/min/mg; t1/2 [9]: 1.7 min; microsomal CLint at 1 µM [10]: 31 µL/min/mg; Stability [11]: 0.9%; CL [12]: 136 µL/min/mg; remaining at 1 h, 1 µM [13]: 1.5%; half-life at 1 µM [14]: 4.5 min |
| CN(c1ccc(F)cc1)S(=O)(=O)c1cccc(C(=O)Nc2ccc(C#N)cc2)c1 | 16 |  |  |  |  |
| CN(c1ccc(Cl)cc1)S(=O)(=O)c1cccc(C(=O)Nc2ccc(S(C)(=O)=O)cc2)c1 | 2 | 112 | 4 | 100 |  |
| CC(C)[N+](C)(CCOC(=O)C1c2ccccc2Oc2ccccc21)C(C)C [PROPANTHELINE] |  |  |  |  | remaining at 5 µM [15]: 3.4%; half-life at 5 µM [16]: 18 min |

Continued, in another order:

| remaining at 1 µM [1] [%] | remaining at 1 µM [2] [%] | remaining at 1 µM [3] [%] | remaining at 1 µM [4] [%] | SMILES | also measured |
| --- | --- | --- | --- | --- | --- |
| 12 | 82 | 0 | 91 | CC(=O)c1ccc(N(C)S(=O)(=O)c2cccc(C(=O)Nc3ccc(Cl)cn3)c2)cc1 |  |
| 2 | 106 | 2 | 90 | COc1ccc(N(C)S(=O)(=O)c2cccc(C(=O)Nc3ccc(C#N)cc3)c2)cc1 |  |
| 12 |  | 0 | 108 | CC(=O)c1ccc(N(C)S(=O)(=O)c2cccc(C(=O)Nc3ccc(Cl)cc3)c2)cc1 |  |
